# ChEMBL document CHEMBL2412957, “Synthesis and SAR of 4-aminocyclopentapyrrolidines as orally active N-type calcium channel inhibitors for inflammatory and neuropathic pain” (Bioorg Med Chem Lett, 2013)
# How the values were obtained:
# [1] = Solubility of the compound by chemiluminescent nitrogen detection method
# [2] = target: Voltage-dependent N-type calcium channel subunit alpha-1B (Homo sapiens, UniProt Q00975); experiment: Inhibition of N-type Cav2.2 channel (unknown origin) by FLIPR assay
# Chain of Voltage-dependent N-type calcium channel subunit alpha-1B (Homo sapiens, UniProt Q00975) (Q00975 whole entry): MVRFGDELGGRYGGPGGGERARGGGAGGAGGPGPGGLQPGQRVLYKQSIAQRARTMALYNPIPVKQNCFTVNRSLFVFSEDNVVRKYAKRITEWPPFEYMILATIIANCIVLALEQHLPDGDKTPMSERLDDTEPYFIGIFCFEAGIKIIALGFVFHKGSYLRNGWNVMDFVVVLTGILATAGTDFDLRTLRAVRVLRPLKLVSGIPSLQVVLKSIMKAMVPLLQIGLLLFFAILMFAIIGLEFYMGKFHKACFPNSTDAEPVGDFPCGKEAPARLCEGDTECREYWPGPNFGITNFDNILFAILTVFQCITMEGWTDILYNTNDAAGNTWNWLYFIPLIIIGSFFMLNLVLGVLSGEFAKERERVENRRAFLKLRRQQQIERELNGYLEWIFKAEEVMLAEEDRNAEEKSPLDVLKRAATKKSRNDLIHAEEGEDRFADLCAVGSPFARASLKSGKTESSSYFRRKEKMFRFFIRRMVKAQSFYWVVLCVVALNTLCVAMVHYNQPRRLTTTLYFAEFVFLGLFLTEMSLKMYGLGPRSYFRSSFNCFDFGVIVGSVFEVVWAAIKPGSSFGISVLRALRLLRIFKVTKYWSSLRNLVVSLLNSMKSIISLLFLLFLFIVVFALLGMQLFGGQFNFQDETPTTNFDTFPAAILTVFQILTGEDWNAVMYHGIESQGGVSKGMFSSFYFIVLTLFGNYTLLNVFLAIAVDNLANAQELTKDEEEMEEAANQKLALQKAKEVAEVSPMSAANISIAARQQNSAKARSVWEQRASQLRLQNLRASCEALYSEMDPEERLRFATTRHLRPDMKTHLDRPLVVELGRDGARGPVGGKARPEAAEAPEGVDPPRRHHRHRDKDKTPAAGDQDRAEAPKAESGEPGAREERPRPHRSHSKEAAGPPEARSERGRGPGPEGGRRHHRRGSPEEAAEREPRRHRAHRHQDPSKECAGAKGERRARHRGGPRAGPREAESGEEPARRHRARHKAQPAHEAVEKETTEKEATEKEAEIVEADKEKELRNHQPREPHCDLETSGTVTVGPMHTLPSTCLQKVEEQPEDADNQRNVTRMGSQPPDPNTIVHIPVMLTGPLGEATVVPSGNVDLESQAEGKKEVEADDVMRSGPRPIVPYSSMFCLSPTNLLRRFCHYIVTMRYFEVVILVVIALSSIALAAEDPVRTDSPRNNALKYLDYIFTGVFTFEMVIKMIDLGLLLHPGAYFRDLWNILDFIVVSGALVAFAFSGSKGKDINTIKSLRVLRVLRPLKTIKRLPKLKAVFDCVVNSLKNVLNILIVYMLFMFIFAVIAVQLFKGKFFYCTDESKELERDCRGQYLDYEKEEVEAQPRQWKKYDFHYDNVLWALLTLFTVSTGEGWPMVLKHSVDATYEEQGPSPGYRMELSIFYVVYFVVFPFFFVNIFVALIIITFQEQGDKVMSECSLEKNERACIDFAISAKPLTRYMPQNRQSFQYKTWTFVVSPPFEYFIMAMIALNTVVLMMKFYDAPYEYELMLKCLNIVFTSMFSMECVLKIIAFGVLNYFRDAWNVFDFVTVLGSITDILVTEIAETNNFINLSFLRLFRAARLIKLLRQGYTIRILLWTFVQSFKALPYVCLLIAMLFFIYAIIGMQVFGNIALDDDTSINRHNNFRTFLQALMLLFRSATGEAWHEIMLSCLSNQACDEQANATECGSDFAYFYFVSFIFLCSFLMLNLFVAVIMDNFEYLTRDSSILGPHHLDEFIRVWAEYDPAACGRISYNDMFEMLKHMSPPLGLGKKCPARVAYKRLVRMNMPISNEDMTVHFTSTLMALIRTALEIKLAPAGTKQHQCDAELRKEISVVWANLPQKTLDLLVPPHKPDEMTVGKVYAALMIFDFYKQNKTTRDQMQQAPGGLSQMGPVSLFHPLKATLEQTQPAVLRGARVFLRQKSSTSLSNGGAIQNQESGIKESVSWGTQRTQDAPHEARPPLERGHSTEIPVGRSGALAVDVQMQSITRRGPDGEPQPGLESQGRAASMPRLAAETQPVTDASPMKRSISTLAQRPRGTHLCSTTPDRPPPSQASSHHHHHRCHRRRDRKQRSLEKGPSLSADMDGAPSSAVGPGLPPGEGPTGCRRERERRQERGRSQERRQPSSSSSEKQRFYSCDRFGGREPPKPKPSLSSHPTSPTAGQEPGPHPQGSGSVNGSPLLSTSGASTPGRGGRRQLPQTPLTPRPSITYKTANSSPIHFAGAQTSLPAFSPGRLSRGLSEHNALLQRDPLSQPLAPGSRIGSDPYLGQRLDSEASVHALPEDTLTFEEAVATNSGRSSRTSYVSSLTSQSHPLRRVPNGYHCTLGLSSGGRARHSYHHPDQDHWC
# [3] = Metabolic stability in human liver microsomes assessed as compound remaining after 30 mins; assay type: ADME, Microsome; conditions: read-out: Stability
# [4] = Metabolic stability in rat liver microsomes assessed as compound remaining after 30 mins; assay type: ADME, Microsome; conditions: read-out: Stability
# [5] = (§1) Oral bioavailability in rat at 30 umol/kg; assay type: ADME, organism-based; conditions: in vivo, 30 umol/kg
# [6] = (§2) Plasma clearance in rat at 5 umol/kg, iv and 30 umol/kg, po; assay type: ADME, organism-based; conditions: plasma
# [7] = (§3) AUC in rat at 30 umol/kg, po; assay type: ADME, organism-based, Plasma; conditions: plasma, 30 umol/kg
# [8] = Half life in rat at 5 umol/kg, iv and 30 umol/kg, po; assay type: ADME, organism-based; conditions: in vivo
# [9] = Volume of distribution at steady state in rat at 5 umol/kg, iv and 30 umol/kg, po; assay type: ADME, organism-based; conditions: in vivo, read-out: Vdss
# [10] = Volume of distribution at steady state in rat at 5 umol/kg, iv and 5 umol/kg, po; assay type: ADME, organism-based; conditions: in vivo, read-out: Vdss
# [11] = Oral bioavailability in rat at 5 umol/kg; assay type: ADME, organism-based; conditions: in vivo
# [12] = Plasma clearance in rat at 5 umol/kg, iv and 5 umol/kg, po; assay type: ADME, organism-based
# [13] = Half life in rat at 5 umol/kg, iv and 5 umol/kg, po; assay type: ADME, organism-based; conditions: in vivo
# [14] = AUC in rat at 5 umol/kg, po; assay type: ADME, organism-based; conditions: plasma
# Rattus norvegicus [15] = species: Rattus norvegicus; experiment: Analgesic activity in rat monoiodoaceate-induced osteoarthritis pain model; assay type: functional
# Rattus norvegicus [16] = species: Rattus norvegicus; experiment: Analgesic activity in rat chronic constriction injury-induced neuropathic pain model; assay type: functional
# [17] = Ratio of drug level brain to plasma in rat at 3 umol/kg, ip after 30 mins; assay type: ADME, organism-based; conditions: read-out: BPR
# [18] = target: T1, Voltage-dependent N-type calcium channel subunit alpha-1B (Rattus norvegicus, UniProt Q02294); experiment: Inhibition of rat N-type Cav2.2 channel expressed in HEK293 cells under depolarized condition by whole cell patch-clamp manual electrophysiology assay; assay type: cell-based
# T1 sequence (Q02294 whole entry): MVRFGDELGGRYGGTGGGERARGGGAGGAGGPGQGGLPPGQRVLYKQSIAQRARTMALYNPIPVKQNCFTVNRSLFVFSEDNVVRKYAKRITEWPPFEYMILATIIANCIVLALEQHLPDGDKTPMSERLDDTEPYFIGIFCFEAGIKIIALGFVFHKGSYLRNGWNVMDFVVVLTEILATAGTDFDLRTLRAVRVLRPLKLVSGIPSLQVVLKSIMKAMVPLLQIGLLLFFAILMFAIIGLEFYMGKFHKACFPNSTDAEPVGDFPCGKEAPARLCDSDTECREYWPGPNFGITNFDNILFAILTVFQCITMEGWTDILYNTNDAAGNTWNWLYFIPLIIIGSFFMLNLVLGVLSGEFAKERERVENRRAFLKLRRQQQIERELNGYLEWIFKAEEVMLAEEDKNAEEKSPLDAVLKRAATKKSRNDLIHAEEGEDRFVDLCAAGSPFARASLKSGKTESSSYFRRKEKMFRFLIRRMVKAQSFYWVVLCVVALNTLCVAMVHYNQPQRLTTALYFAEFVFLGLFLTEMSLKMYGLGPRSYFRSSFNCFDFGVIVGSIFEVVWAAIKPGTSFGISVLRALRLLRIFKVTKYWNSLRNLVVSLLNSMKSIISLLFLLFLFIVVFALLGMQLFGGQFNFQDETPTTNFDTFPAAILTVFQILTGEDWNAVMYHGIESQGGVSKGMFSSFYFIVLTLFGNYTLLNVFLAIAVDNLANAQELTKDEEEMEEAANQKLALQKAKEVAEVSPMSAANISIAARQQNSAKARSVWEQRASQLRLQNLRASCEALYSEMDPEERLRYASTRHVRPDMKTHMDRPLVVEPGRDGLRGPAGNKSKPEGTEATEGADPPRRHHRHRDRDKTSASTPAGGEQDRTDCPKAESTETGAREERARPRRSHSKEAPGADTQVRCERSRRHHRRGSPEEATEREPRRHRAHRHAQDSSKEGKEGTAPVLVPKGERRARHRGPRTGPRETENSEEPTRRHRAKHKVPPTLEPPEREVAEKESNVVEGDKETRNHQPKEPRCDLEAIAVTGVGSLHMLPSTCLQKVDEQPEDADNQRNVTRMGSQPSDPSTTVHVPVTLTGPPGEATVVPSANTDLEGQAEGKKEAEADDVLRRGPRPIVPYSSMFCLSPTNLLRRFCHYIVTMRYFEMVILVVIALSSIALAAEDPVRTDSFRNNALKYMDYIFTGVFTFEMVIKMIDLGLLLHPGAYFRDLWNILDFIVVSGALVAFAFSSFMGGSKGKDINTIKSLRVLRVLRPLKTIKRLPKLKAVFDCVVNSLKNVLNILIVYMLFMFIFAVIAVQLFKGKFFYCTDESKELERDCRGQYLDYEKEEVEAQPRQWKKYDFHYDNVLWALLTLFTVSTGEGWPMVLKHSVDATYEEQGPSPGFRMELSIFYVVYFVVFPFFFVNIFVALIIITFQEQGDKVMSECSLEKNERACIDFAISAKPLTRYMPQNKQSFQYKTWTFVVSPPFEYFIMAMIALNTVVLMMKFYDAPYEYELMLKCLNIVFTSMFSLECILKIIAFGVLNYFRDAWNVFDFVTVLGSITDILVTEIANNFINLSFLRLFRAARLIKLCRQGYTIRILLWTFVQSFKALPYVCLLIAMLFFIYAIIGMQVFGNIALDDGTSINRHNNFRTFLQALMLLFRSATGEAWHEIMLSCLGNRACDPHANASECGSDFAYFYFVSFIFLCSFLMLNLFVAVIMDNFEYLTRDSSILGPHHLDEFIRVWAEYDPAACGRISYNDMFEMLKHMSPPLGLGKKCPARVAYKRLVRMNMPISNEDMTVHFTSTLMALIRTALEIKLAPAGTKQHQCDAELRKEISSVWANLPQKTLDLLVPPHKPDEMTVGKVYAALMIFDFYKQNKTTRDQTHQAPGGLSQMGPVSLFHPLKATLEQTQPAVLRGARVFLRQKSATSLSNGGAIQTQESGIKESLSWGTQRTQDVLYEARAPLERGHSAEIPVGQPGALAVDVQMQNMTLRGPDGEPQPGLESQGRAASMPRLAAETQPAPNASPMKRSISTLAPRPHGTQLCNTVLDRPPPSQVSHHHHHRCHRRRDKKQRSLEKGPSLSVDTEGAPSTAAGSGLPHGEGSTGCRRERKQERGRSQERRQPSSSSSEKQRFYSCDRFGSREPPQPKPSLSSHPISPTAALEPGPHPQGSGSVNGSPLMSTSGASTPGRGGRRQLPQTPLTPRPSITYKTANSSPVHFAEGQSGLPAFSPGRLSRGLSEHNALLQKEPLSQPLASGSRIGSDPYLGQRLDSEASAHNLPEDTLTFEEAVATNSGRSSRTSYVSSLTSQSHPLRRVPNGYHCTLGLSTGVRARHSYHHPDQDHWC
# [19] = target: T1, Voltage-dependent N-type calcium channel subunit alpha-1B; experiment: Inhibition of rat N-type Cav2.2 channel expressed in HEK293 cells under hyperpolarized condition by whole cell patch-clamp manual electrophysiology assay; assay type: cell-based
# [20] = target: Voltage-gated inwardly rectifying potassium channel KCNH2 (Homo sapiens, UniProt Q12809); experiment: Inhibition of dofetilide binding to human ERG
# Rattus norvegicus [21] = experiment: as §1; assay type: ADME, organism-based; conditions: in vivo, at 30 µmol/kg
# Rattus norvegicus [22] = experiment: Cardiotoxicity in anesthetized rat assessed as decrease in mean arterial pressure at plasma concentration of 1.57 ug/mL; assay type: toxicity, organism-based
# [23] = Ratio of drug level brain to plasma in po dosed rat after 60 mins; assay type: ADME, organism-based; conditions: read-out: BPR
# [24] = target: Voltage-gated L-type calcium channel (Rattus norvegicus, UniProt P22002+Q02485+P27732); experiment: Inhibition of L-type calcium channel in rat aorta ring tissue assessed as relaxation of tissue; assay type: tissue-based
# Rattus norvegicus [25] = experiment: as §2; assay type: ADME, organism-based; conditions: in vivo
# Rattus norvegicus [26] = experiment: as §3; assay type: ADME, organism-based, Plasma; conditions: in vivo
# Rattus norvegicus [27] = species: Rattus norvegicus; experiment: Analgesic activity in rat capsaicin secondary mechanical hyperalgesia pain model; assay type: functional
Compound,solubility [1] [µM],IC50 ([2]; read-out: IC50) [nM],IC50 ([2]; read-out: pIC50 (converted)) [nM],remaining at 0.5 h [3] [%],remaining at 0.5 h [4] [%],further results
CCN[C@@H](CC(C)(C)C)C(=O)N[C@H]1CC[C@@H]2CN(S(=O)(=O)c3ccc(C(F)(F)F)cc3)C[C@@H]21,20,490,575,22.8,89.2,–
CC(C)C[C@@H](C(=O)N[C@@H]1CC[C@H]2CN(S(=O)(=O)c3cccc(C(F)(F)F)c3)C[C@H]21)N(C)C,79,450,–,0.1,1,bioavailability [5]: 0.8%; clearance [6]: 56.7 mL/min/kg; AUC [7]: 35 ng·h/mL; half-life [8]: 1.4 h; Vd [9]: 5.2 L/kg
CN[C@@H](CC(C)C)C(=O)N[C@@H]1CC[C@H]2CN(S(=O)(=O)c3ccc(C(F)(F)F)cc3)C[C@H]21,27,770,851,50.5,47.3,Vd [10]: 5.6 L/kg; bioavailability [11]: 21%; clearance [12]: 36.7 mL/min/kg; half-life [13]: 2.1 h; AUC [14]: 221 ng·h/mL
CC(C)(C)C[C@H](N)C(=O)N[C@H]1CC[C@@H]2CN(S(=O)(=O)c3ccc(C(F)(F)F)cc3)C[C@@H]21,68,870,933,41.8,79.4,–
CN[C@@H](CC(C)C)C(=O)N[C@H]1CC[C@@H]2CN(c3ccc(C(F)(F)F)cc3)C[C@@H]21,33,1240,–,> 85,> 85,Vd [10]: 26.5 L/kg; ED50 (Rattus norvegicus [15]): 3 mg/kg; ED50 (Rattus norvegicus [16]): 10 mg/kg; bioavailability [11]: 83%; clearance [12]: 21.7 mL/min/kg; half-life [13]: 15.4 h; Kp at 0.5 h [17]: 16.5; IC50 [18]: 1000 nM; AUC [14]: 799 ng·h/mL; IC50 [19]: 4400 nM
CN[C@@H](CC(C)C)C(=O)N[C@@H]1CC[C@H]2CN(S(=O)(=O)c3cccc(C(F)(F)F)c3)C[C@H]21,75,520,631,25.5,26.5,bioavailability [5]: 10.5%; clearance [6]: 60 mL/min/kg; AUC [7]: 405 ng·h/mL; half-life [8]: 2 h; Vd [9]: 9.2 L/kg
CN[C@@H](CC(C)C)C(=O)N[C@H]1CC[C@@H]2CN(c3ccc(OC(F)(F)F)cc3)C[C@@H]21,31,5150,–,> 85,66,–
CN[C@@H](Cc1ccccc1)C(=O)N[C@H]1CC[C@@H]2CN(S(=O)(=O)c3ccc(C(F)(F)F)cc3)C[C@@H]21,–,860,–,26.8,26.2,–
CCCC[C@H](NC)C(=O)N[C@H]1CC[C@@H]2CN(S(=O)(=O)c3ccc(C(F)(F)F)cc3)C[C@@H]21,38,750,–,51.1,66.4,–
CN[C@@H](CC(C)C)C(=O)N[C@H]1CC[C@@H]2CN(c3cccc(C(F)(F)F)c3)C[C@@H]21,56,–,1170,73,81,–
CCC[C@H](NC)C(=O)N[C@H]1CC[C@@H]2CN(S(=O)(=O)c3ccc(C(F)(F)F)cc3)C[C@@H]21,97,960,–,74.6,83.4,–
CN[C@@H](CC(C)C)C(=O)N[C@@H]1CC[C@H]2CN(Cc3cccc(C(F)(F)F)c3)C[C@H]21,67,1890,–,19.4,60.7,–
CN[C@@H](CC(C)(C)C)C(=O)N[C@H]1CC[C@@H]2CN(S(=O)(=O)c3ccc(C(F)(F)F)cc3)C[C@@H]21,76,790,832,33.6,66.5,–
CN[C@@H](CC(C)C)C(=O)N[C@H]1CC[C@@H]2CN(S(=O)(=O)c3ccc(C(F)(F)F)cc3)C[C@@H]21,77,750,851,54.4,69.9,Vd [10]: 13.2 L/kg; bioavailability [11]: 50%; clearance [12]: 46.7 mL/min/kg; half-life [13]: 3.3 h; AUC [14]: 422 ng·h/mL
CC(C)C[C@H](N)C(=O)N[C@@H]1CC[C@H]2CN(S(=O)(=O)c3cccc(C(F)(F)F)c3)C[C@H]21,44,1060,–,45,10.3,bioavailability [5]: 0%; clearance [6]: 568 mL/min/kg; half-life [8]: 0.5 h; Vd [9]: 15 L/kg
CC(C)C[C@H](NS(C)(=O)=O)C(=O)N[C@@H]1CC[C@H]2CN(Cc3cccc(C(F)(F)F)c3)C[C@H]21,80,2840,–,23.6,42.1,–
CC(C)(C)[C@H](N)C(=O)N[C@H]1CC[C@@H]2CN(S(=O)(=O)c3ccc(C(F)(F)F)cc3)C[C@@H]21,94,1510,–,75.6,77.1,–
O=C(N[C@@H]1CC[C@H]2CN(Cc3cccc(C(F)(F)F)c3)C[C@H]21)C(C1CCCCC1)C1CCCCC1,< 3,1870,–,1.2,2.6,Ki [20]: 9520 nM
CC(C)N[C@@H](CC(C)(C)C)C(=O)N[C@H]1CC[C@@H]2CN(S(=O)(=O)c3ccc(C(F)(F)F)cc3)C[C@@H]21,–,–,–,79.6,64.3,F (Rattus norvegicus [21]): 46.7%; ED50 (Rattus norvegicus [15]): 8 mg/kg; ED50 (Rattus norvegicus [16]): 32 mg/kg; Activity (Rattus norvegicus [22]): Toxic; Kp at 1 h [23]: 0.9; IC50 [24]: 2600 nM; CL (Rattus norvegicus [25]): 33 mL/min/kg; AUC (Rattus norvegicus [26]): 240 ng·h/mL; half-life [8]: 2.7 h; IC50 [18]: 340 nM; Vd [9]: 7.1 L/kg; ED50 (Rattus norvegicus [27]): 13 mg/kg; IC50 [19]: 340 nM
O=C(N[C@H]1CC[C@H]2CN(Cc3cccc(C(F)(F)F)c3)C[C@H]21)C(C1CCCCC1)C1CCCCC1,< 3,–,–,0.5,0.1,Ki [20]: 690 nM
